Results from article PMC5438368, “Characterization of TRPA channels in the starfish Patiria pectinifera: involvement of thermally activated TRPA1 in thermotaxis in marine planktonic larvae” (Scientific Reports, 2017).

Experiments:
[1] = molecular target: T1, PpTRPA1 (Patiria pectinifera, UniProt A0A1Y1C7R6); assay: two-electrode voltage clamp, Xenopus laevis oocytes; assay type: cell-based
T1 construct: cRNA in Xenopus laevis oocytes; no tag told; PCR primers imply N-terminus MEGDE and C-terminus EHDGSNTA
T1 sequence (A0A1Y1C7R6 1-1200): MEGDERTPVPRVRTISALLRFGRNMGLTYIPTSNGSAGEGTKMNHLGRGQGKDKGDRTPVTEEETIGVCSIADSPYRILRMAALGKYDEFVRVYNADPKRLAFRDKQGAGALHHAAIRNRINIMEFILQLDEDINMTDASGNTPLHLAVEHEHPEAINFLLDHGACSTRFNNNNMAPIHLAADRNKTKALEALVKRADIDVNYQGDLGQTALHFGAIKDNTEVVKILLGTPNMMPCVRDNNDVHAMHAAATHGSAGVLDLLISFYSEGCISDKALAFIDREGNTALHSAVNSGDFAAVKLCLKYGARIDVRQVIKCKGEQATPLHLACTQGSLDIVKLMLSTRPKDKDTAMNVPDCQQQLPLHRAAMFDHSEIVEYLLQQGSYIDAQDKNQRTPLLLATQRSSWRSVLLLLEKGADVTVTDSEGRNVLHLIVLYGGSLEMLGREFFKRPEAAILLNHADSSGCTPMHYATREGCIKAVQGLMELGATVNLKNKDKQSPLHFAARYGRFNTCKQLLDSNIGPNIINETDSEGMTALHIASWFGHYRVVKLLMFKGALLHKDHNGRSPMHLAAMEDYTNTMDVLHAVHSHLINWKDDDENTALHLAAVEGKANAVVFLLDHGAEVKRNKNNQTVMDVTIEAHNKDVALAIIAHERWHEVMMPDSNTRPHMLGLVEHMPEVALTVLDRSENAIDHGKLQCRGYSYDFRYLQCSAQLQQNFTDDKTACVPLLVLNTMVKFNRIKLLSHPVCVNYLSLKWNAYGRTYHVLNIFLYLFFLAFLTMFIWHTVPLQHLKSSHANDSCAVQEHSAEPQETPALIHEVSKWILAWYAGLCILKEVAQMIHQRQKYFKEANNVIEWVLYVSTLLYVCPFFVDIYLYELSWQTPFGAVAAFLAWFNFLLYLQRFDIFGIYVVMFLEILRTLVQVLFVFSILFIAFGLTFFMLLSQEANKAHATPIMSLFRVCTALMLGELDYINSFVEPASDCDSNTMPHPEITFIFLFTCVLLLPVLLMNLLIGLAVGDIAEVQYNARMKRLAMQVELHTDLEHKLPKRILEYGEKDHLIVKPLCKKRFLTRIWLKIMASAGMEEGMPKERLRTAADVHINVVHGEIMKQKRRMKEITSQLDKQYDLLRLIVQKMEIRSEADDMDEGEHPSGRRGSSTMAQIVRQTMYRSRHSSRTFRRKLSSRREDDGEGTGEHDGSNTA

[2] = molecular target: T1, PpTRPA1; assay: as above; assay type: cell-based; conditions: agonist; ND96 bath, pH 7.4; -60 mV; n = 3; cinnamaldehyde concentration not in text

SMILES | EC50 [1] | two-electrode voltage clamp, Xenopus laevis oocytes [2]
C=CCN=C=S [AITC, allyl isothiocyanate] | 117 µM | –
O=CC=Cc1ccccc1 [CA, cinnamaldehyde] | – | Cinnamaldehyde (CA), another TRPA1 agonist, also evoked inward currents in X. laevis oocytes expressing PpTRPA1
